Here are results for three molecules from patent US4163058A, “Derivatives of 5,5-diphenylhydantoin exhibiting enhanced solubility and the therapeutic use thereof” (INTERX Research Corporation, priority 1977, dated 1979).

Where two headings read alike, the source gives them in different places. Some results are limits rather than exact numbers.

For data set [1] the following is noted: in vivo, iv; cited from earlier work.
For data set [2] the following is noted: in vivo; cited from earlier work.
The conditions of data set [3]: oral, sodium salt; due to alkalinity of the dosage form; cited from earlier work.
Data set [4] is described as follows: aqueous solubility (compound added in increments to water until solubility was determined). The class given is physicochemical. As for the experimental part:
The compound was added in increments to water until solubility was determined.

The conditions of data set [5]: aqueous; comparison value for the parent; cited from earlier work.
For data set [6] the following is noted: 37° C.; cited from earlier work.
For data set [7] the following is noted: cited from earlier work.

As to `O=C1NC(=O)C(c2ccccc2)(c2ccccc2)N1.[Na]`, the “precipitation and blood levels” value in data set [1] was “frequently leads to precipitation of 5,5-diphenylhydantoin as well as erractic blood levels”. Moreover, the “precipitation at the injection site and release” value in data set [2] was “precipitate 5,5-diphenylhydantoin at the injection site leading to delayed and erractic 5,5-diphenylhydantoin release”. The gastric irritation result in data set [3] was “frequently causes gastric irritation”.

In general, solubility refers to how much of the substance goes into solution per volume. Turning to `CN(C)CC(=O)OCN1C(=O)NC(c2ccccc2)(c2ccccc2)C1=O` [3-(N,N-dimethylglycyloxymethyl)diphenylhydantoin methanesulfonate], the solubility in data set [4] (in water) was above 100 mg/mL. The “increase in aqueous solubility over diphenylhydantoin” value in data set [4] (versus diphenylhydantoin per se) is listed as ~5,000 fold.

On to `O=C1NC(=O)C(c2ccccc2)(c2ccccc2)N1` [5,5-diphenylhydantoin], for which, in data set [5], the “solubility of the parent specie” value is recorded as “less than 0.02 mg/ml”. For the same molecule, the solubility entry in data set [6] was “less than 2 mg. in 100 ml”. The release patterns entry in data set [7] (both in vitro and in vivo) was “often produces unpredictable and erractic release patterns”. For the same molecule, the bioavailability result in data set [7] (per se as well as from pharmaceutical dosage forms) is given as “low bioavailability”.
